One assay relates to B. subtilis strain FB17. Put plainly: capillary chemotaxis assay. Type of assay: cell-based, Bacillus subtilis. As for the experimental part: (§1) To evaluate MA's ability to selectively recruit FB17, microbial motility at varying MA doses was measured by capillary chemotaxis assay (Gordillo et al., 2007). […] The concentration range of 5 to 30 μM falls within the biological titers of MA secreted in planta through the root exudates. […] To establish whether L-MA specifically chemoattracts FB17, other beneficial bacteria, such as Pseudomonas fluorescens strain Pf01 and Azospirillum brasilense strain Cd, and pathogenic bacteria, such as Pst DC3000, Erwinia carotovora strain AH2, Agrobacterium rhizogenes strain Arqua-1, and Agrobacterium tumefaciens strain LBA4404, were assayed for MA. […] Bacterial strains used in the chemotactic assay included B. subtilis strain FB17, A. tumefaciens strain LBA4404, E. carotovora strain AH2, A. rhizogenes strain Arqua-1, A. brasilense strain Cd, P. fluorescens (Pf01), and P. syringae (Pst DC3000). Data are the average of six replicates from two experiments conducted separately.

For a further assay, the system named is yqxM operon. In kind it is cell-based, B. subtilis strain Marburg.
In the next assay the test system is Pst DC3000. Put plainly: capillary chemotaxis assay. In kind it is cell-based, Pseudomonas syringae pv tomato. As for the experimental part:
as §1

Assay [1] relates to Pseudomonas fluorescens strain Pf01. Put plainly: capillary chemotaxis assay. Type of assay: cell-based. Here is the method:
as §1

Assay [2] has as its system Agrobacterium tumefaciens strain LBA4404. Kind of assay: capillary chemotaxis assay. Type of assay: cell-based. As for the experimental part:
as §1

The test system of assay [3] is Azospirillum brasilense strain Cd. Put plainly: capillary chemotaxis assay. In kind it is cell-based. Here is the method: as §1
For assay [4], the system named is Agrobacterium rhizogenes strain Arqua-1. Kind of assay: capillary chemotaxis assay. Type of assay: cell-based. As for the experimental part: as §1
The test system of assay [5] is Erwinia carotovora strain AH2. Put plainly: capillary chemotaxis assay. Type of assay: cell-based. As for the experimental part: as §1
The next assay has as its system PR1::GUS. Kind of assay: PR1::GUS reporter expression in Arabidopsis.
In a further assay the test system is free SA. Kind of assay: free SA levels in Arabidopsis leaves. Particulars: compared to control untreated plants.
The subject of assay [6] is PDF1.2 and PR1 transcripts. Kind of assay: RT-PCR of defense genes PDF1.2 and PR1. Type of assay: in vivo, Arabidopsis thaliana. The conditions noted are these: leaves, compared to mock inoculated plants. An excerpt: To further confirm that a FB17 component, acetoin, mediates this response we analyzed the defense genes PDF1.2 and Jin1 whose expression depends on functional ET and JA pathways.

The test system of the next assay is DC3000. Put plainly: acetoin treatment of Arabidopsis plants leaf inoculated with DC3000.

Data on five compounds can be found in patent US9023758B2, “Methods for promoting plant health” (University of Delaware, priority 2009, dated 2015).

For `O=C(O)C[C@H](O)C(=O)O` [L-MA, L-malic acid], in the assay with B. subtilis strain FB17 (dose range of 5 to 30 μM), the “chemotactic behavior of FB17” value is listed as “positive chemotactic behavior in a concentration-dependent manner”. For the same compound, the “expression of biofilm operon yqxM (β-galactosidase activity)” value (“expression of biofilm operon yqxM” for short) in the assay on yqxM operon is given as “elevated expression”. Further, in the assay with yqxM operon, the “β-galactosidase activity level and kinetics compared to root exudates” value is “activity level was lower and the kinetics response was abbreviated”. Besides, the “motility toward L-MA compared to FB17” value (in the assay on Pst DC3000; in [1]; in assay [2]; in assay [3]; in assay [4]; in assay [5]) was “none of the bacteria shows any significant motility” in each case.
In the case of `O=C(O)C(=O)O` [oxalic acid, reference compound], in the assay on B. subtilis strain FB17 (30 μM), the “chemotactic efficacy compared to the natural L-MA form” value is given as “lower efficacies”. Moreover, the “expression of biofilm operon yqxM” value in the assay with yqxM operon is reported as “did not stimulate β-galactosidase activity”.
On to `O=C(O)C[C@@H](O)C(=O)O` [D-MA], for which, in the assay with B. subtilis strain FB17 (30 μM), the “chemotactic efficacy compared to the natural L-MA form” value is on record as “lower efficacies” and the “chemotaxis compared to water control” value is recorded as “significantly higher than the water control”. In addition, in the assay with yqxM operon, the “expression of biofilm operon yqxM” value was “did not stimulate β-galactosidase activity”.
`O=C(O)c1ccccc1O` [SA]: the PR1 expression result with PR1::GUS (leaves sprayed) was “higher PR1 expression”; in the assay with PR1::GUS (root treated plants), “much less PR1 expression”.
Take `CC(=O)C(C)O` (stereo not drawn) [acetoin, 3-hydroxy-2-butanone]: in the assay on free SA, the “free SA levels” value is listed as “enhances the total free SA level”. Moreover, the “PR1::GUS expression” value in the assay with PR1::GUS (treated or root inoculated plants compared to untreated plants) was “enhanced PR1 expression”. For the same compound, in [6], the PDF1.2 transcripts entry was “more”. Further, the PR1 transcripts result in assay [6] is given as “more”. The percent disease incidence result with DC3000 (Arabidopsis, ratio of leaves with symptoms to leaves inoculated, vs untreated) is given as “significantly lower”. Also, the disease symptoms entry in the assay with DC3000 (Arabidopsis, volatile treatment, 5 days post-infection, compared to untreated controls) is given as “significantly lower disease symptoms”. In the assay with DC3000 (Arabidopsis, vs untreated, P<0.05), the “DC3000 CFUs from leaves” value was “lower DC3000 CFUs”. The “protection from DC3000 infection” value with DC3000 (SA deficient NahG plants) and in the assay on DC3000 (ethylene mutant etr1-3 plants) was “failed to protect” each time. For the same compound, the “DC3000 multiplication in terms of CFUs” value in the assay on DC3000 (jasmonic acid mutant Jar1-1) and in the assay with DC3000 (wild type Col-0) was “significantly reduction in DC3000 multiplication” throughout.
